Experimental data reported in US6914045B2, “Glycopeptide antibiotics” (Wyeth Holdings Corporation, priority 2001, dated 2005).
In brackets after ≈: the same amount, converted by molar mass.

Tests used:
Assay in all cases: in vitro antibacterial evaluation, MIC by broth dilution
Type in all cases: cell-based
Enterococcus sp. = conditions: broth dilution, 18 hours at 35° C.
Protocol: (§1) Methods for in vitro Antibacterial Evaluation (Table 1)
(§2) The minimum inhibitory concentration (MIC), the lowest concentration of the antibiotic which inhibits growth of the test organism, is determined by the broth dilution method using Muller-Hinton II […] (Baltimore Biological Laboratories) following the recommendations of the National Committee for Clinical Laboratory Standards [Methods for dilution antimicrobial susceptibility tests for bacteria that grow aerobically, approved standard M7-A2, National Committee for Clinical Laboratory Standards, Villanova, Pa.].
(§3) An inoculum level of 5×10^5 CFU/mL, and a range of antibiotic concentrations (64-0.06 μg/mL) is used. […] The test organisms include a spectrum of Gram-positive bacteria comprised of Staphylococcus sp., Streptococcus sp. and Enterococcus sp. These organisms include recent clinical isolates that are resistant to methicillin, penicillin and/or vancomycin.

Staphylococcus sp. = conditions: broth dilution, 18 hours at 35° C.; for MIC Staphylococcus aureus (GC 1131): strain GC 1131
Protocol: as §1, §2, §3

Streptococcus sp. = conditions: broth dilution, 18 hours at 35° C.
Protocol: as §1, §2, §3

Escherichia coli = conditions: 18 hours at 35° C.

## CC(c1ccccc1)C1NC(=O)CNC(=O)C(CO)NC(=O)C(C(O)C2CNC(=N)N2C2OC(CO)C(O)C(O)C2O)NC(=O)C(C(O)C2CNC(=N)N2)NC(=O)C(Cc2ccc(OC3OC(CO)C(OC4OC5COC(c6cccc(Oc7cccc(C(F)(F)F)c7)c6)OC5C(O)C4O)C(O)C3O)cc2)NC1=O (centres unmarked) [Example 184]
Enterococcus sp.
  MIC Enterococcus avium (GC 4558): 32 µg/mL (≈ 20.7 µM)
  MIC Enterococcus faecalis (ATCC 29212): 32 µg/mL (≈ 20.7 µM)
  MIC Enterococcus faecalis (GC 2242): 32 µg/mL (≈ 20.7 µM)
  MIC Enterococcus faecalis (GC 2691): 32 µg/mL (≈ 20.7 µM)
  MIC Enterococcus faecalis (GC 3059): 32 µg/mL (≈ 20.7 µM)
  MIC Enterococcus faecalis (GC 4552): 32 µg/mL (≈ 20.7 µM)
  MIC Enterococcus faecalis (GC 4553): 16 µg/mL (≈ 10.4 µM)
  MIC Enterococcus faecalis (GC 4554): 32 µg/mL (≈ 20.7 µM)
  MIC Enterococcus faecalis (GC 6189): 32 µg/mL (≈ 20.7 µM)
  MIC Enterococcus faecium (GC 2243): 16 µg/mL (≈ 10.4 µM)
  MIC Enterococcus faecium (GC 4556): 32 µg/mL (≈ 20.7 µM)
  MIC Enterococcus faecium (GC 4557): 32 µg/mL (≈ 20.7 µM)
Enterococcus sp.; inoculum 5×10^5 CFU/mL, strain ATCC 29212
  MIC Enterococcus faecalis (ATCC 29212): 32 µg/mL (≈ 20.7 µM)
Enterococcus sp.; inoculum 5×10^5 CFU/mL, strain GC 2242
  MIC Enterococcus faecalis (GC 2242): 32 µg/mL (≈ 20.7 µM)
Enterococcus sp.; inoculum 5×10^5 CFU/mL, strain GC 2243
  MIC Enterococcus faecium (GC 2243): 16 µg/mL (≈ 10.4 µM)
Enterococcus sp.; inoculum 5×10^5 CFU/mL, strain GC 2691
  MIC Enterococcus faecalis (GC 2691): 32 µg/mL (≈ 20.7 µM)
Enterococcus sp.; inoculum 5×10^5 CFU/mL, strain GC 3059
  MIC Enterococcus faecalis (GC 3059): 32 µg/mL (≈ 20.7 µM)
Enterococcus sp.; inoculum 5×10^5 CFU/mL, strain GC 4552
  MIC Enterococcus faecalis (GC 4552): 32 µg/mL (≈ 20.7 µM)
Enterococcus sp.; inoculum 5×10^5 CFU/mL, strain GC 4553
  MIC Enterococcus faecalis (GC 4553): 16 µg/mL (≈ 10.4 µM)
Enterococcus sp.; inoculum 5×10^5 CFU/mL, strain GC 4554
  MIC Enterococcus faecalis (GC 4554): 32 µg/mL (≈ 20.7 µM)
Enterococcus sp.; inoculum 5×10^5 CFU/mL, strain GC 4556
  MIC Enterococcus faecium (GC 4556): 32 µg/mL (≈ 20.7 µM)
Enterococcus sp.; inoculum 5×10^5 CFU/mL, strain GC 4557
  MIC Enterococcus faecium (GC 4557): 32 µg/mL (≈ 20.7 µM)
Enterococcus sp.; inoculum 5×10^5 CFU/mL, strain GC 4558
  MIC Enterococcus avium (GC 4558): 32 µg/mL (≈ 20.7 µM)
Enterococcus sp.; inoculum 5×10^5 CFU/mL, strain GC 6189
  MIC Enterococcus faecalis (GC 6189): 32 µg/mL (≈ 20.7 µM)
Staphylococcus sp.; inoculum 5×10^5 CFU/mL
  MIC Staphylococcus aureus (GC 1131): 32 µg/mL (≈ 20.7 µM)
Staphylococcus sp.; strain ATCC 29213
  MIC Staphylococcus aureus (ATCC 29213): 32 µg/mL (≈ 20.7 µM)
Staphylococcus sp.
  MIC Staphylococcus aureus (GC 1131): 32 µg/mL (≈ 20.7 µM)
Staphylococcus sp.; strain GC 3051
  MIC Staphylococcus aureus (GC 3051): 32 µg/mL (≈ 20.7 µM)
Staphylococcus sp.; strain GC 3053
  MIC Staphylococcus aureus (GC 3053): 32 µg/mL (≈ 20.7 µM)
Staphylococcus sp.; strain GC 4541
  MIC Staphylococcus aureus (GC 4541): 32 µg/mL (≈ 20.7 µM)
Staphylococcus sp.; strain GC 4542
  MIC Staphylococcus aureus (GC 4542): 32 µg/mL (≈ 20.7 µM)
Staphylococcus sp.; strain GC 4543
  MIC Staphylococcus aureus-SMITH (GC 4543): 32 µg/mL (≈ 20.7 µM)
Staphylococcus sp.; strain GC 4544
  MIC Staphylococcus aureus (GC 4544): 32 µg/mL (≈ 20.7 µM)
Staphylococcus sp.; strain GC 4545
  MIC Staphylococcus aureus (GC 4545): 32 µg/mL (≈ 20.7 µM)
Staphylococcus sp.; strain GC 4546
  MIC Staphylococcus haemolyticus (GC 4546): 32 µg/mL (≈ 20.7 µM)
Staphylococcus sp.; strain GC 4547
  MIC Coagulase Negative Staphylococcus (GC 4547): 32 µg/mL (≈ 20.7 µM)
Staphylococcus sp.; strain GC 4548
  MIC Coagulase Negative Staphylococcus (GC 4548): 16 µg/mL (≈ 10.4 µM)
Staphylococcus sp.; strain GC 4549
  MIC Coagulase Negative Staphylococcus (GC 4549): 32 µg/mL (≈ 20.7 µM)
Staphylococcus sp.; strain GC 4551
  MIC Coagulase Negative Staphylococcus (GC 4551): 32 µg/mL (≈ 20.7 µM)
Staphylococcus sp.; strain GC 6257
  MIC Coagulase Negative Staphylococcus (GC 6257): 16 µg/mL (≈ 10.4 µM)
Streptococcus sp.
  MIC Streptococcus agalactiae (GC 4564): 0.12 µg/mL (≈ 0.0777 µM)
  MIC Streptococcus pneumoniae (ATCC 6301): <0.06 µg/mL
  MIC Streptococcus pneumoniae (GC 1894): <0.06 µg/mL
  MIC Streptococcus pneumoniae (GC 4565): <0.06 µg/mL
  MIC Streptococcus pyogenes (GC 4563): 0.25 µg/mL (≈ 0.162 µM)
Streptococcus sp.; inoculum 5×10^5 CFU/mL, strain ATCC 6301
  MIC Streptococcus pneumoniae (ATCC 6301): <0.06 µg/mL
Streptococcus sp.; inoculum 5×10^5 CFU/mL, strain GC 1894
  MIC Streptococcus pneumoniae (GC 1894): <0.06 µg/mL
Streptococcus sp.; inoculum 5×10^5 CFU/mL, strain GC 4563
  MIC Streptococcus pyogenes (GC 4563): 0.25 µg/mL (≈ 0.162 µM)
Streptococcus sp.; inoculum 5×10^5 CFU/mL, strain GC 4564
  MIC Streptococcus agalactiae (GC 4564): 0.12 µg/mL (≈ 0.0777 µM)
Streptococcus sp.; inoculum 5×10^5 CFU/mL, strain GC 4565
  MIC Streptococcus pneumoniae (GC 4565): <0.06 µg/mL
Escherichia coli
  MIC Escherichia coli (ATCC 25922): >64 µg/mL
  MIC Escherichia coli (GC 4559): >64 µg/mL
  MIC Escherichia coli (GC 4560): 32 µg/mL (≈ 20.7 µM)
